Legend:
[1] = system: Granta-519 human mantle-cell lymphoma; assay: Combination efficacy in tumor xenograft model of Granta-519 (Example 3); format: in vivo; conditions: ADC 1 mg/kg iv once; ABT-199 100 mg/kg orally once a day for 21 days
Description: To appropriately analyze the repeated measurement of tumor volumes from the same animals over time, a mixed modeling approach was used (Pinheiro J, et al. nlme: linear and nonlinear mixed effects models. 2009; R package, version 3.1-96). This approach addresses both repeated measurements and modest dropout rates due to non-treatment related removal of animals before the study end. Cubic regression splines were used to fit a non-linear profile to the time courses of log2 tumor volume at each dose level. These non-linear profiles were then related to dose within the mixed model. The results were plotted as fitted tumor volume of each group over time.

[2] = system: WSU-DLCL2 (DLBCL); assay: Combination efficacy in tumor xenograft model of WSU-DLCL2 (Example 6); format: in vivo, C.B-17 SCID mice; conditions: ADC 2 mg/kg iv once; GA101 30 mg/kg ip once; GDC-199 100 mg/kg po qdx21; GDC-032 10 mg/kg po qdx21; rituximab 30 mg/kg ip once
Experimental: GA101 dosed 30 mg/kg, ip, once. Bcl2 inhibitor, GDC-199, was dosed at 100 mg/kg, po, qdx21. PI3K inhibitor, GDC-032 was dosed at 10 mg/kg, po, qdx21.

[3] = system: non-ABC-DLBCL cells; conditions: Br J Haematol 2013 Zhang et al.; cited from earlier work
[4] = system: TMD8 (ABC-DLBCL); assay: Combination efficacy in tumor xenograft model of TMD8 (Example 5); conditions: ADC 2 mg/kg iv once; GA101 1 mg/kg ip qwx3; lenalidomide 20 mg/kg po (qdx5)x3
Experimental: When the xenograft tumors reached desired volume, animals were randomized and received treatments (Day 0 of the study). There were seven treatment groups (1) vehicle, (2) GA101, (3) anti-CD79b-MC-vc-PAB-MMAE, (4) lenalidomide, (5) GA101+anti-CD79b-MC-vc-PAB-MMAE, (6) GA101+lenalidomide, and (7) GA101+lenalidomide+anti-CD79b-MC-vc-PAB-MMAE. CD79b-MC-vc-PAB-MMAE ADC was dosed once intravenously at 2 mg/kg, iv, once. GA101 dosed 1 mg/kg, ip, qwx3. Lenalidomide was administered at 20 mg/kg, po, (qdx5)×3.
As described above, tumors were measured 1-2 times a week throughout the study using UltraCal-IV calipers and tumor volume was calculated using following formula: tumor volume (mm^3)=0.5a×b^2, wherein a and b are the long and short diameters of the tumor, respectively.

[5] = system: activated B-cell-like (ABC) subtype; conditions: Br J Haematol 2013 Zhang et al.; cited from earlier work

For `CC1(C)CCC(CN2CCN(c3ccc(C(=O)NS(=O)(=O)c4ccc(NCC5CCOCC5)c([N+](=O)[O-])c4)c(Oc4cnc5[nH]ccc5c4)c3)CC2)=C(c2ccc(Cl)cc2)C1` [ABT-199, 4-(4-{[2-(4-chlorophenyl)-4,4-dimethylcyclohex-1-en-1-yl]methyl}piperazin-1-yl)-N-({3-nitro-4-[(tetrahydro-2H-pyran-4-ylmethyl)amino]phenyl}sulfonyl)-2-(1H-pyrrolo[2,3-b]pyridin-5-yloxy)benzamide], the “anti-tumor activity (fitted tumor volume over time, FIG. 2)” value [1] was “did not result in anti-tumor activity” and the “effect on tumor growth (tumor volume, FIG. 4)” value (“effect on tumor growth” for short) [2] was “little effect on the tumor growth”.
In the case of `Nc1cccc2c1CN(C1CCC(=O)NC1=O)C2=O` (racemic) [lenalidomide, (RS)-3-(4-Amino-1-oxo 1,3-dihydro-2H-isoindol-2-yl)piperidine-2,6-dione], the “effect on non-ABC-DLBCL cells” value [3] is listed as “minimal effect”, the “anti-tumor efficacy (tumor volume, FIG. 3B)” value [4] is listed as “little efficacy” and the “growth suppression of ABC subtype” value [5] is listed as “preferentially suppresses the growth”.
With `Cc1nc(-c2cn3c(n2)-c2ccc(-c4cnn(C(C)(C)C(N)=O)c4)cc2OCC3)n(C(C)C)n1` [GDC-0032] the “effect on tumor growth” value [2] was “little effect on the tumor growth”.
In the case of “GA101: anti-CD20 antibody; obinutuzumab is synonymous for GA101 or RO5072759; humanized B-Ly1 type II antibody”, the “effect on tumor growth” value [2] was “little effect on the tumor growth”.

Source: patent publication US11000510B2, “Methods of using anti-CD79b immunoconjugates” (Genentech, Inc., priority 2014, dated 2021)
